≈ marks a conversion by molar mass, not a printed value. Read-outs that look alike come from different tables or passages of the source.
Test system: MRSA
Assay: MIC, in vitro susceptibility testing (CLSI)
Type: cell-based, Staphylococcus aureus
[1] = Staphylococcus aureus, MRSA, 101 strains

CNc1cc(F)cc2c1[nH]c1nc(Oc3cnc(C)nc3)nc(N3CCC4(CC3)CO[C@@H](CO)C4)c12 [JSF-2414]
MIC range (101 strains (Van: 8)): 0.002 to 0.125 µg/mL
MIC (Staphylococcus aureus, MRSA, 101 clinical MRSA strains, read-out: modal MIC): 0.031 µg/mL (≈ 0.0628 µM)
MIC (Staphylococcus aureus, MRSA, ciprofloxacin-resistant strains (MIC >4 μg/mL), n = 30, read-out: modal MIC): 0.062 µg/mL (≈ 0.126 µM)
MIC (Staphylococcus aureus, MRSA, discussion, read-out: MIC): 0.031 µg/mL (≈ 0.0628 µM)
MIC (Staphylococcus aureus, MRSA, strain 2 11 41, read-out: MIC): 0.062 µg/mL (≈ 0.126 µM)
MIC (Staphylococcus aureus, MRSA, strain 2 11 42, read-out: MIC): 0.016 µg/mL (≈ 0.0324 µM)
MIC (Staphylococcus aureus, MRSA, strain 2 11 43, read-out: MIC): 0.062 µg/mL (≈ 0.126 µM)
MIC (Staphylococcus aureus, MRSA, strain 2 11 56, read-out: MIC): 0.004 µg/mL (≈ 0.0081 µM)
MIC (Staphylococcus aureus, MRSA, strain 2 11 57, read-out: MIC): 0.125 µg/mL (≈ 0.253 µM)
MIC (Staphylococcus aureus, MRSA, strain 2 11 58, read-out: MIC): 0.002 µg/mL (≈ 0.00405 µM)
MIC (Staphylococcus aureus, MRSA, strain 2 11 60, read-out: MIC): 0.004 µg/mL (≈ 0.0081 µM)
MIC (Staphylococcus aureus, MRSA, strain 2 11 61, read-out: MIC): 0.004 µg/mL (≈ 0.0081 µM)
MIC (Staphylococcus aureus, MRSA, strain 2 11 65, read-out: MIC): 0.062 µg/mL (≈ 0.126 µM)
MIC (Staphylococcus aureus, MRSA, strain 2 11 66, read-out: MIC): 0.062 µg/mL (≈ 0.126 µM)
MIC (Staphylococcus aureus, MRSA, strain 2 11 67, read-out: MIC): 0.004 µg/mL (≈ 0.0081 µM)
MIC (Staphylococcus aureus, MRSA, strain 2 11 68, read-out: MIC): 0.004 µg/mL (≈ 0.0081 µM)
MIC (Staphylococcus aureus, MRSA, strain 2 11 71, read-out: MIC): 0.062 µg/mL (≈ 0.126 µM)
MIC (Staphylococcus aureus, MRSA, strain 2 11 74, read-out: MIC): 0.062 µg/mL (≈ 0.126 µM)
MIC (Staphylococcus aureus, MRSA, strain 2 11 75, read-out: MIC): 0.008 µg/mL (≈ 0.0162 µM)
MIC (Staphylococcus aureus, MRSA, strain 2 11 79, read-out: MIC): 0.062 µg/mL (≈ 0.126 µM)
MIC (Staphylococcus aureus, MRSA, strain 2 11 80, read-out: MIC): 0.002 µg/mL (≈ 0.00405 µM)
MIC (Staphylococcus aureus, MRSA, strain 2 11 83, read-out: MIC): 0.062 µg/mL (≈ 0.126 µM)
MIC (Staphylococcus aureus, MRSA, strain 2 11 84, read-out: MIC): 0.031 µg/mL (≈ 0.0628 µM)
MIC (Staphylococcus aureus, MRSA, strain 2 11 86, read-out: MIC): 0.002 µg/mL (≈ 0.00405 µM)
MIC (Staphylococcus aureus, MRSA, strain 2 11 87, read-out: MIC): 0.062 µg/mL (≈ 0.126 µM)
MIC (Staphylococcus aureus, MRSA, strain 2 11 90, read-out: MIC): 0.125 µg/mL (≈ 0.253 µM)
MIC (Staphylococcus aureus, MRSA, strain 2 11 91, read-out: MIC): 0.016 µg/mL (≈ 0.0324 µM)
MIC (Staphylococcus aureus, MRSA, strain 2 11 99, read-out: MIC): 0.008 µg/mL (≈ 0.0162 µM)
MIC (Staphylococcus aureus, MRSA, strain 2 12 13, read-out: MIC): 0.125 µg/mL (≈ 0.253 µM)
MIC (Staphylococcus aureus, MRSA, strain 2 12 76, read-out: MIC): 0.031 µg/mL (≈ 0.0628 µM)
MIC (Staphylococcus aureus, MRSA, strain 2 12 78, read-out: MIC): 0.016 µg/mL (≈ 0.0324 µM)
MIC (Staphylococcus aureus, MRSA, strain 2 12 88, read-out: MIC): 0.004 µg/mL (≈ 0.0081 µM)
MIC (Staphylococcus aureus, MRSA, strain 2 13 19, read-out: MIC): 0.016 µg/mL (≈ 0.0324 µM)
MIC (Staphylococcus aureus, MRSA, strain 2 13 23, read-out: MIC): 0.125 µg/mL (≈ 0.253 µM)
MIC (Staphylococcus aureus, MRSA, strain 2 13 26, read-out: MIC): 0.004 µg/mL (≈ 0.0081 µM)
MIC (Staphylococcus aureus, MRSA, strain 2 13 27, read-out: MIC): 0.016 µg/mL (≈ 0.0324 µM)
MIC (Staphylococcus aureus, MRSA, strain 2 13 29, read-out: MIC): 0.002 µg/mL (≈ 0.00405 µM)
MIC (Staphylococcus aureus, MRSA, strain 2 13 32, read-out: MIC): 0.004 µg/mL (≈ 0.0081 µM)
MIC (Staphylococcus aureus, MRSA, strain 2 13 33, read-out: MIC): 0.016 µg/mL (≈ 0.0324 µM)
MIC (Staphylococcus aureus, MRSA, strain 2 13 41, read-out: MIC): 0.125 µg/mL (≈ 0.253 µM)
MIC (Staphylococcus aureus, MRSA, strain 2 13 43, read-out: MIC): 0.062 µg/mL (≈ 0.126 µM)
MIC (Staphylococcus aureus, MRSA, strain 2 13 47, read-out: MIC): 0.125 µg/mL (≈ 0.253 µM)
MIC (Staphylococcus aureus, MRSA, strain 2 13 48, read-out: MIC): 0.002 µg/mL (≈ 0.00405 µM)
MIC (Staphylococcus aureus, MRSA, strain 2 13 52, read-out: MIC): 0.002 µg/mL (≈ 0.00405 µM)
MIC (Staphylococcus aureus, MRSA, strain 2 13 53, read-out: MIC): 0.062 µg/mL (≈ 0.126 µM)
MIC (Staphylococcus aureus, MRSA, strain 2 13 54, read-out: MIC): 0.062 µg/mL (≈ 0.126 µM)
MIC (Staphylococcus aureus, MRSA, strain 2 13 55, read-out: MIC): 0.062 µg/mL (≈ 0.126 µM)
MIC (Staphylococcus aureus, MRSA, strain 2 13 56, read-out: MIC): 0.062 µg/mL (≈ 0.126 µM)
MIC (Staphylococcus aureus, MRSA, strain 2 13 57, read-out: MIC): 0.016 µg/mL (≈ 0.0324 µM)
MIC (Staphylococcus aureus, MRSA, strain 2 13 58, read-out: MIC): 0.031 µg/mL (≈ 0.0628 µM)
MIC (Staphylococcus aureus, MRSA, strain 2 35 90, read-out: MIC): 0.016 µg/mL (≈ 0.0324 µM)
MIC (Staphylococcus aureus, MRSA, strain 2 36 04, read-out: MIC): 0.031 µg/mL (≈ 0.0628 µM)
MIC (Staphylococcus aureus, MRSA, strain 2 36 17, read-out: MIC): 0.031 µg/mL (≈ 0.0628 µM)
MIC (Staphylococcus aureus, MRSA, strain 2 36 31, read-out: MIC): 0.031 µg/mL (≈ 0.0628 µM)
MIC (Staphylococcus aureus, MRSA, strain 2 66 36, read-out: MIC): 0.016 µg/mL (≈ 0.0324 µM)
MIC (Staphylococcus aureus, MRSA, strain 2 66 41, read-out: MIC): 0.016 µg/mL (≈ 0.0324 µM)
MIC (Staphylococcus aureus, MRSA, strain 2 78 41, read-out: MIC): 0.062 µg/mL (≈ 0.126 µM)
MIC (Staphylococcus aureus, MRSA, strain 2 78 62, read-out: MIC): 0.031 µg/mL (≈ 0.0628 µM)
MIC (Staphylococcus aureus, MRSA, strain 2 78 66, read-out: MIC): 0.031 µg/mL (≈ 0.0628 µM)
MIC (Staphylococcus aureus, MRSA, strain 2 78 96, read-out: MIC): 0.031 µg/mL (≈ 0.0628 µM)
MIC (Staphylococcus aureus, MRSA, strain 2 79 17, read-out: MIC): 0.062 µg/mL (≈ 0.126 µM)
MIC (Staphylococcus aureus, MRSA, strain 2 79 22, read-out: MIC): 0.031 µg/mL (≈ 0.0628 µM)
MIC (Staphylococcus aureus, MRSA, strain 2 79 25, read-out: MIC): 0.031 µg/mL (≈ 0.0628 µM)
MIC (Staphylococcus aureus, MRSA, strain 2 79 29, read-out: MIC): 0.016 µg/mL (≈ 0.0324 µM)
MIC (Staphylococcus aureus, MRSA, strain 2 79 33, read-out: MIC): 0.031 µg/mL (≈ 0.0628 µM)
MIC (Staphylococcus aureus, MRSA, strain 2 79 65, read-out: MIC): 0.062 µg/mL (≈ 0.126 µM)
MIC (Staphylococcus aureus, MRSA, strain 2 79 67 (first listing), read-out: MIC): 0.031 µg/mL (≈ 0.0628 µM)
MIC (Staphylococcus aureus, MRSA, strain 2 79 67 (second listing), read-out: MIC): 0.031 µg/mL (≈ 0.0628 µM)
MIC (Staphylococcus aureus, MRSA, strain 2 80 36, read-out: MIC): 0.062 µg/mL (≈ 0.126 µM)
MIC (Staphylococcus aureus, MRSA, strain 2 80 46, read-out: MIC): 0.031 µg/mL (≈ 0.0628 µM)
MIC (Staphylococcus aureus, MRSA, strain 2 80 48, read-out: MIC): 0.031 µg/mL (≈ 0.0628 µM)
MIC (Staphylococcus aureus, MRSA, strain 2 80 62, read-out: MIC): 0.031 µg/mL (≈ 0.0628 µM)
MIC (Staphylococcus aureus, MRSA, strain 2 80 67, read-out: MIC): 0.062 µg/mL (≈ 0.126 µM)
MIC (Staphylococcus aureus, MRSA, strain 2 81 54, read-out: MIC): 0.031 µg/mL (≈ 0.0628 µM)
MIC (Staphylococcus aureus, MRSA, strain 2 85 12, read-out: MIC): 0.016 µg/mL (≈ 0.0324 µM)
MIC (Staphylococcus aureus, MRSA, strain 2 85 13, read-out: MIC): 0.008 µg/mL (≈ 0.0162 µM)
MIC (Staphylococcus aureus, MRSA, strain 2 85 14, read-out: MIC): 0.031 µg/mL (≈ 0.0628 µM)
MIC (Staphylococcus aureus, MRSA, strain 2 85 32, read-out: MIC): 0.062 µg/mL (≈ 0.126 µM)
MIC (Staphylococcus aureus, MRSA, strain 2 87 54, read-out: MIC): 0.031 µg/mL (≈ 0.0628 µM)
MIC (Staphylococcus aureus, MRSA, strain 2 87 55, read-out: MIC): 0.031 µg/mL (≈ 0.0628 µM)
MIC (Staphylococcus aureus, MRSA, strain 2 87 77, read-out: MIC): 0.016 µg/mL (≈ 0.0324 µM)
MIC (Staphylococcus aureus, MRSA, strain 2 88 47, read-out: MIC): 0.016 µg/mL (≈ 0.0324 µM)
MIC (Staphylococcus aureus, MRSA, strain 2 88 71, read-out: MIC): 0.016 µg/mL (≈ 0.0324 µM)
MIC (Staphylococcus aureus, MRSA, strain 2 88 83, read-out: MIC): 0.008 µg/mL (≈ 0.0162 µM)
MIC (Staphylococcus aureus, MRSA, strain 2 88 84, read-out: MIC): 0.004 µg/mL (≈ 0.0081 µM)
MIC (Staphylococcus aureus, MRSA, strain 2 89 13, read-out: MIC): 0.016 µg/mL (≈ 0.0324 µM)
MIC (Staphylococcus aureus, MRSA, strain 2 89 17, read-out: MIC): 0.008 µg/mL (≈ 0.0162 µM)
MIC (Staphylococcus aureus, MRSA, strain 2 90 62, read-out: MIC): 0.016 µg/mL (≈ 0.0324 µM)
MIC (Staphylococcus aureus, MRSA, strain 2 90 86, read-out: MIC): 0.016 µg/mL (≈ 0.0324 µM)
MIC (Staphylococcus aureus, MRSA, strain 2 90 98, read-out: MIC): 0.031 µg/mL (≈ 0.0628 µM)
MIC (Staphylococcus aureus, MRSA, strain 2 91 55, read-out: MIC): 0.031 µg/mL (≈ 0.0628 µM)
MIC (Staphylococcus aureus, MRSA, strain 2 91 79, read-out: MIC): 0.016 µg/mL (≈ 0.0324 µM)
MIC (Staphylococcus aureus, MRSA, strain 2 91 84, read-out: MIC): 0.031 µg/mL (≈ 0.0628 µM)
MIC (Staphylococcus aureus, MRSA, strain 2 93 06, read-out: MIC): 0.062 µg/mL (≈ 0.126 µM)
MIC (Staphylococcus aureus, MRSA, strain 2 93 24, read-out: MIC): 0.031 µg/mL (≈ 0.0628 µM)
MIC (Staphylococcus aureus, MRSA, strain 2 93 30, read-out: MIC): 0.031 µg/mL (≈ 0.0628 µM)
MIC (Staphylococcus aureus, MRSA, strain 2 95 78, read-out: MIC): 0.031 µg/mL (≈ 0.0628 µM)
MIC (Staphylococcus aureus, MRSA, strain 2 96 95, read-out: MIC): 0.031 µg/mL (≈ 0.0628 µM)
MIC (Staphylococcus aureus, MRSA, strain 2 97 09, read-out: MIC): 0.016 µg/mL (≈ 0.0324 µM)
MIC (Staphylococcus aureus, MRSA, strain 3 03 39, read-out: MIC): 0.016 µg/mL (≈ 0.0324 µM)
MIC (Staphylococcus aureus, MRSA, strain 3 65 31, read-out: MIC): 0.016 µg/mL (≈ 0.0324 µM)
MIC (Staphylococcus aureus, MRSA, strain 3 65 39, read-out: MIC): 0.016 µg/mL (≈ 0.0324 µM)
MIC (Staphylococcus aureus, MRSA, strain 3 80 43, read-out: MIC): 0.002 µg/mL (≈ 0.00405 µM)
MIC (Staphylococcus aureus, MRSA, strain 3 80 68, read-out: MIC): 0.008 µg/mL (≈ 0.0162 µM)
MIC (Staphylococcus aureus, MRSA, strain USA400Padm, read-out: MIC): 0.062 µg/mL (≈ 0.126 µM)
MIC50 [1]: 0.031 µg/mL (≈ 0.0628 µM)
MIC90 [1]: 0.062 µg/mL (≈ 0.126 µM)

Reference: paper PMC9487510, “A Novel Oral GyrB/ParE Dual Binding Inhibitor Effective against Multidrug-Resistant Neisseria gonorrhoeae and Other High-Threat Pathogens” (Antimicrobial Agents and Chemotherapy, 2022)
